Laboratory results published in article PMC11680592 (Scientific Reports, 2024).
One block for each molecule: values may come before it.

Experiments:
[1] = biological target: yeast α-glucosidase (Saccharomyces cerevisiae, UniProt P53341); test: In vitro α-glucosidase inhibition assay; assay type: biochemical; conditions: for Fold decrease of anti-α-glucosidase activity relative to compound 10e: compared with 4-ethylphenyl derivative 10e; for Fold decrease of inhibitory activity relative to compound 10g: compared with 2,6-dimethyl derivative 10g; for Fold increase of inhibitory activity relative to compound 10m: compared with 4-nitro derivative 10m
[2] = biological target: α-glucosidase (Saccharomyces cerevisiae, UniProt P53341); test: Kinetic study of α-glucosidase inhibition; assay type: biochemical, yeast
Chain of α-glucosidase (P53341 whole entry): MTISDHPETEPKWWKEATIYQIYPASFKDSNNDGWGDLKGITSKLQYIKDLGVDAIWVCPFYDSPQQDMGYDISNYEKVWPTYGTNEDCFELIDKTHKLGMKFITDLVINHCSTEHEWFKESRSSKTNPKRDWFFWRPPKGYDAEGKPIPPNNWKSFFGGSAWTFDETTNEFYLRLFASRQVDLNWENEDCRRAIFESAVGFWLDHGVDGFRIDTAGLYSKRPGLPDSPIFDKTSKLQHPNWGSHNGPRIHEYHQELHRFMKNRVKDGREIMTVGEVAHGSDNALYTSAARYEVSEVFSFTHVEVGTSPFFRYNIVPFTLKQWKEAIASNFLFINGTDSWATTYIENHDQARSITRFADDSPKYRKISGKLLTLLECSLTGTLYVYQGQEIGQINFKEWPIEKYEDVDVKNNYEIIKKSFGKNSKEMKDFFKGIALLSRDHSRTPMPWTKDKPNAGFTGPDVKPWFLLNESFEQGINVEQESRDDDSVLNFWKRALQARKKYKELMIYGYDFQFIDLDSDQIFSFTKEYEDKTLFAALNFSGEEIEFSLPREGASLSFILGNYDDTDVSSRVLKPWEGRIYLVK

Chain of yeast α-glucosidase (P53341 whole entry): as above

Structure (SMILES): Cc1ccc(NC(=O)Cn2cc(CSc3nc4ccccc4cc3/C=N/NC(N)=S)nn2)cc1 [Compound 10d, (E)-2-(4-(((3-((2-Carbamothioylhydrazineylidene)methyl)quinolin-2-yl)thio)methyl)-1H-1,2,3-triazol-1-yl)-N-(p-tolyl)acetamide]
Fold decrease of anti-α-glucosidase activity relative to compound 10e [1]: 6.97 folds

Structure (SMILES): Cc1cccc(NC(=O)Cn2cc(CSc3nc4ccccc4cc3/C=N/NC(N)=S)nn2)c1C [Compound 10f, (E)-2-(4-(((3-((2-Carbamothioylhydrazineylidene)methyl)quinolin-2-yl)thio)methyl)-1H-1,2,3-triazol-1-yl)-N-(2,3-dimethylphenyl)acetamide]
Fold decrease of inhibitory activity relative to compound 10g [1]: 1.6 folds

Structure (SMILES): NC(=S)N/N=C/c1cc2ccccc2nc1SCc1cn(CC(=O)Nc2cccc([N+](=O)[O-])c2)nn1 [Compound 10k, (E)-2-(4-(((3-((2-Carbamothioylhydrazineylidene)methyl)quinolin-2-yl)thio)methyl)-1H-1,2,3-triazol-1-yl)-N-(3-nitrophenyl)acetamide]
Fold increase of inhibitory activity relative to compound 10m [1]: 2.58 folds

Structure (SMILES): Cc1cc([N+](=O)[O-])ccc1NC(=O)Cn1cc(CSc2nc3ccccc3cc2/C=N/NC(N)=S)nn1 [Compound 10l, (E)-2-(4-(((3-((2-Carbamothioylhydrazineylidene)methyl)quinolin-2-yl)thio)methyl)-1H-1,2,3-triazol-1-yl)-N-(2-methyl-4-nitrophenyl)acetamide]
Fold increase of inhibitory activity relative to compound 10m [1]: 1.82 folds

The next lines start with the values.

Fold decrease of anti-α-glucosidase activity relative to compound 10e [1]: 5.38 folds
Structure (SMILES): NC(=S)N/N=C/c1cc2ccccc2nc1SCc1cn(CC(=O)Nc2ccccc2)nn1 [Compound 10a, (E)-2-(4-(((3-((2-Carbamothioylhydrazineylidene)methyl)quinolin-2-yl)thio)methyl)-1H-1,2,3-triazol-1-yl)-N-phenylacetamide]

Fold decrease of inhibitory activity relative to compound 10g [1]: 2.3 folds
Structure (SMILES): Cc1ccccc1NC(=O)Cn1cc(CSc2nc3ccccc3cc2/C=N/NC(N)=S)nn1 [Compound 10b, (E)-2-(4-(((3-((2-Carbamothioylhydrazineylidene)methyl)quinolin-2-yl)thio)methyl)-1H-1,2,3-triazol-1-yl)-N-(o-tolyl)acetamide]

Improving the inhibitory effect (times more potent than acarbose) [1]: 15.5
Ki [2]: 48.1 µM
Mode of α-glucosidase inhibition ([2]; Lineweaver–Burk plot, inhibitor 0, 12.1, 24.2, 48.4 µM): competitive α-glucosidase inhibitor
Structure (SMILES): NC(=S)N/N=C/c1cc2ccccc2nc1SCc1cn(CC(=O)NCCc2ccccc2)nn1 [Compound 10n, (E)-2-(4-(((3-((2-Carbamothioylhydrazineylidene)methyl)quinolin-2-yl)thio)methyl)-1H-1,2,3-triazol-1-yl)-N-phenethylacetamide]
